One data set relates to B16-F10 cells. The data set is described as follows: Trypan blue staining. The format is cell-based, mouse. The following applies: 50 μM, 24 h, 0.04% trypan blue 4 min. The protocol:
B16-F10 cells were seeded into a 48-well plate (2 × 10^3 cells/well) for 24 h and treated with LVTX-9 (50 μM) and LVTX-9-C18 (5 μM) for 24 h. The cells were washed with PBS gently and stained with 0.04% Trypan blue for 4 min. Dead cells were stained blue.

Data set [1] in a line: RP-HPLC retention time as measure of hydrophobicity. It is filed as physicochemical. The settings on record: chromatographic, Vydac C18 300 Å 4.6 × 250 mm, 1.0 mL/min, gradient 30-100% acetonitrile/0.1% TFA, 215 nm, column 25 ± 5 °C; maximum height of peak. The protocol:
Peptides were synthesized using the Fmoc SPPS methods. Briefly, the peptide LVTX-9 (AC-[…]-amide) was prepared on Rink Amide AM resin at a 0.2 mmol scale. A 4-fold excess of the Fmoc-protected amino acids was coupled with the Rink Amide AM resin using HCTU and HOBT as the activating agents in 5% NMM/DMF. After the synthesis of LVTX-9, the N-terminal Fmoc group was removed using 20% piperidine. As in the previous steps, a series of fatty acids (C12-C20) was activated in HCTU and HOBT using 5% NMM/DMF, and coupled to peptidyl resin for 2 h. Peptides were cleaved using trifluoroacetic acid (TFA)/thioanisole (TIS)/anisole (95:3:2 (v/v)) for 2.5 h, and the collected lysate was precipitated in cold diethyl ether three times. The precipitate was air-dried naturally. Next, the obtained crude products were purified using RP-HPLC (C18, 4.6 mm × 250 mm) on the basis of a 0.1% TFA/acetonitrile gradient from 30% to 100% in 46 min. Then, we collected the eluted peptides and determined the molecular mass using MALDI-TOF MS (AB, SCIEX, Waltham, MA, USA).
Figure 2 Purification and identification of five lipopeptides using RP-HPLC and MALDL-TOF MS: The purification of (A) LVTX-9-C12, (B) LVTX-9-C14, (C) LVTX-9-C16, (D) LVTX-9-C18, and (E) LVTX-9-C20 was performed using RP-HPLC (column, Vydac, C18, 300 Å, 4.6 × 250 mm). The lipopeptides were separated at a flow rate of 1.0 mL/min under a gradient of 30–100% acetonitrile/0.1% TFA. The elution of lipopeptides was monitored at 215 nm. Identification of (F) LVTX-9-C12, (G) LVTX-9-C14, (H) LVTX-9-C16, (I) LVTX-9-C18, and (J) LVTX-9-C20 by MALDI-TOF MS, respectively. The red star (*) represents the target peak. […]
Table S1. Purification gradient of peptides.
Time (min) Flow Rate (mL/min) A% B%
Wavelength: 215 nm/280 nm, column temperature: 25 ± 5 ℃, A: ddH2O (0.1% TFA), B: acetonitrile
(1 picture or pasted object on this page, not shown here)

Where no end group is shown, it is not given here.

In the case of “ASIGALIQKAIALIKAKAA-NH2 (C-terminus assumed) [LVTX-9]”, the “trypan blue staining at 50 μM” value in the data set with B16-F10 cells is “almost unstained”. The “TR (retention time, RP-HPLC; indicates the hydrophobicity of the peptides)” value in data set [1] is 15.21 min.
